From paper PMC9532703, “A novel small molecule RK-019 inhibits FGFR2-amplification gastric cancer cell proliferation and induces apoptosis in vitro and in vivo” (Frontiers in Pharmacology, 2022)

Key:
Test in all cases: Kinase selectivity panel
Assay type in all cases: biochemical
ALK4(h) = target: T1, ALK4(h) (Homo sapiens, UniProt P36896); settings: read-out: Inhibition(%) @ 1 µM RK-019
T1 construct: purchased Eurofins Discovery Services (KinaseProfiler)
In short: (§1)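 ATP-site competition binding, in vitro; recombinant human kinase, single concentration 1 µM; % inhibition read-out.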

MYLK2(h) = target: T2, MYLK2(h) (Homo sapiens, UniProt Q9H1R3); settings: read-out: Inhibition(%) @ 1 µM RK-019
T2 construct: purchased Eurofins Discovery Services (KinaseProfiler)
In short: as §1

ErbB2(h) = target: T3, ErbB2(h) (Homo sapiens, UniProt P04626); settings: read-out: Inhibition(%) @ 1 µM RK-019
T3 construct: purchased Eurofins Discovery Services (KinaseProfiler)
In short: as §1

IKKα(h) = target: T4, IKKα(h) (Homo sapiens, UniProt O15111); settings: read-out: Inhibition(%) @ 1 µM RK-019
T4 construct: purchased Eurofins Discovery Services (KinaseProfiler)
In short: as §1

cKit(D816V)(h) = target: T5, cKit(D816V)(h) (Homo sapiens, UniProt P10721, D816V); settings: read-out: Inhibition(%) @ 1 µM RK-019
T5 construct: purchased Eurofins Discovery Services (KinaseProfiler)
In short: as §1

TLK1(h) = target: T6, TLK1(h) (Homo sapiens, UniProt Q9UKI8); settings: read-out: Inhibition(%) @ 1 µM RK-019
T6 construct: purchased Eurofins Discovery Services (KinaseProfiler)
In short: as §1

IKKε(h) = target: T7, IKKε(h) (Homo sapiens, UniProt Q14164); settings: read-out: Inhibition(%) @ 1 µM RK-019
T7 construct: purchased Eurofins Discovery Services (KinaseProfiler)
In short: as §1

LRRK2(h) = target: T8, LRRK2(h) (Homo sapiens, UniProt Q5S007); settings: read-out: Inhibition(%) @ 1 µM RK-019
T8 construct: purchased Eurofins Discovery Services (KinaseProfiler)
In short: as §1

DMPK(h) = target: T9, DMPK(h) (Homo sapiens, UniProt Q09013); settings: read-out: Inhibition(%) @ 1 µM RK-019
T9 construct: purchased Eurofins Discovery Services (KinaseProfiler)
T9 sequence (Q09013 whole entry): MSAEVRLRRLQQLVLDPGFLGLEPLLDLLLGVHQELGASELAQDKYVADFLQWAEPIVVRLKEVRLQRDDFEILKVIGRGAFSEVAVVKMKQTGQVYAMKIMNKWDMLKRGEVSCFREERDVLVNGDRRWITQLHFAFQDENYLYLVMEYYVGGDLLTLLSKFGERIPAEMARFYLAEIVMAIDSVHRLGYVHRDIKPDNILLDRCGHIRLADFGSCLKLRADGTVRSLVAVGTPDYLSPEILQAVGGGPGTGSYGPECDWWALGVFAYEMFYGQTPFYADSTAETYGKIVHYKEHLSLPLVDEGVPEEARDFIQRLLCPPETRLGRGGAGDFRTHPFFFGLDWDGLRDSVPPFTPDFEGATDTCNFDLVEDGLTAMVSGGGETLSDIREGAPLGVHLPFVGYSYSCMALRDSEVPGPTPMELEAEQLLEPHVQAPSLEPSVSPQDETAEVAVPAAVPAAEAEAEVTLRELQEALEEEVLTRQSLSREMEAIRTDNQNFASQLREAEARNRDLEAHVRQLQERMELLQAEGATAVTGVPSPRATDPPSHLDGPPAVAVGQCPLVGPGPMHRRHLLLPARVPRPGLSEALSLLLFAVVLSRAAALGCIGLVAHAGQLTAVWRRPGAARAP
In short: as §1

p70S6K(h) = target: T10, p70S6K(h) (Homo sapiens, UniProt P23443); settings: read-out: Inhibition(%) @ 1 µM RK-019
T10 construct: purchased Eurofins Discovery Services (KinaseProfiler)
T10 sequence (P23443 whole entry): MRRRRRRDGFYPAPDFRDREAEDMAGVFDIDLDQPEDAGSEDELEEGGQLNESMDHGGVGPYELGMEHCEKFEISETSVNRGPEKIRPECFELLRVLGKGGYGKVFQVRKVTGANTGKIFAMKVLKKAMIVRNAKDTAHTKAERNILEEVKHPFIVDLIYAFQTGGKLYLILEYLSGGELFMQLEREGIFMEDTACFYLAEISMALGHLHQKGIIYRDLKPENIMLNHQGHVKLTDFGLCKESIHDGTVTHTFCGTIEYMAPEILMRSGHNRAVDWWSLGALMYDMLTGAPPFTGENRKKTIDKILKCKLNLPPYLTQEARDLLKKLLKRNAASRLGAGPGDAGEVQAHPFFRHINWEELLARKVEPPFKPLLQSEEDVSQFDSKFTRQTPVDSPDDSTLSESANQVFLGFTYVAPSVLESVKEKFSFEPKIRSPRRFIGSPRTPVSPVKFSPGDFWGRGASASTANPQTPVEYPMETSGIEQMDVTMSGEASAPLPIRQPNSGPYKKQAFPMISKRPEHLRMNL
In short: as §1

MLK2(h) = target: T11, MLK2(h) (Homo sapiens, UniProt Q02779); settings: read-out: Inhibition(%) @ 1 µM RK-019
T11 construct: purchased Eurofins Discovery Services (KinaseProfiler)
T11 sequence (Q02779 whole entry): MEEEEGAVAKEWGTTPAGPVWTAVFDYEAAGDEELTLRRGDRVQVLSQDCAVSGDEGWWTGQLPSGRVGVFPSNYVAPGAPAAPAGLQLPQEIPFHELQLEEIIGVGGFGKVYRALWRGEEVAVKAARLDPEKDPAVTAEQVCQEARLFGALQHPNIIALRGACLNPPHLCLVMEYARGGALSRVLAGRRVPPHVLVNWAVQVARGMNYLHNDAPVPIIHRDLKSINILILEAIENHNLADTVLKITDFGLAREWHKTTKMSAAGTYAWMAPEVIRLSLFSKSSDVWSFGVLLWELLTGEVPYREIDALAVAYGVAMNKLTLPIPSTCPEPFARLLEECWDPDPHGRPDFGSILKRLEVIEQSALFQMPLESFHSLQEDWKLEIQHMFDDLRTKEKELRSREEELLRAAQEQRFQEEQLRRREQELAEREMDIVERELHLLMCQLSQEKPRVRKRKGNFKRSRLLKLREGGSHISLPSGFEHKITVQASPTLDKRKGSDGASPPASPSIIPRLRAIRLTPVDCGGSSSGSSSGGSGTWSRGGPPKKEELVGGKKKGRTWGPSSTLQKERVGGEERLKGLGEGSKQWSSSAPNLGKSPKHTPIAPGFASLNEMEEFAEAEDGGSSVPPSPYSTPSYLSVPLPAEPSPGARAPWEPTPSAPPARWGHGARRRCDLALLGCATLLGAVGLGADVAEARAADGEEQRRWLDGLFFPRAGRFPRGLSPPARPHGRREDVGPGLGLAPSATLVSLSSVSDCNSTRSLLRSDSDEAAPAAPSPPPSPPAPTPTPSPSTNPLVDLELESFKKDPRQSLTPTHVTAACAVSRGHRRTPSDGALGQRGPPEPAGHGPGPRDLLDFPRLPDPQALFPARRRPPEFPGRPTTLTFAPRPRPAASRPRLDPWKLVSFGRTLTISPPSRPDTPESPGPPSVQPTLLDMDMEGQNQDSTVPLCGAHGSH
In short: as §1

PIP4K2a(h) = target: T12, PIP4K2a(h) (Homo sapiens, UniProt P48426); settings: read-out: Inhibition(%) @ 1 µM RK-019
T12 construct: purchased Eurofins Discovery Services (KinaseProfiler)
In short: as §1

PKBα(h) = target: T13, PKBα(h) (Homo sapiens, UniProt P31749); settings: read-out: Inhibition(%) @ 1 µM RK-019
T13 construct: purchased Eurofins Discovery Services (KinaseProfiler)
In short: as §1

Snk(h) = target: T14, Snk(h) (Homo sapiens, UniProt Q9NYY3); settings: read-out: Inhibition(%) @ 1 µM RK-019
T14 construct: purchased Eurofins Discovery Services (KinaseProfiler)
In short: as §1

EphA4(h) = target: T15, EphA4(h) (Homo sapiens, UniProt P54764); settings: read-out: Inhibition(%) @ 1 µM RK-019
T15 construct: purchased Eurofins Discovery Services (KinaseProfiler)
In short: as §1

MAK(h) = target: T16, MAK(h) (Homo sapiens, UniProt P20794); settings: read-out: Inhibition(%) @ 1 µM RK-019
T16 construct: purchased Eurofins Discovery Services (KinaseProfiler)
T16 sequence (P20794 whole entry): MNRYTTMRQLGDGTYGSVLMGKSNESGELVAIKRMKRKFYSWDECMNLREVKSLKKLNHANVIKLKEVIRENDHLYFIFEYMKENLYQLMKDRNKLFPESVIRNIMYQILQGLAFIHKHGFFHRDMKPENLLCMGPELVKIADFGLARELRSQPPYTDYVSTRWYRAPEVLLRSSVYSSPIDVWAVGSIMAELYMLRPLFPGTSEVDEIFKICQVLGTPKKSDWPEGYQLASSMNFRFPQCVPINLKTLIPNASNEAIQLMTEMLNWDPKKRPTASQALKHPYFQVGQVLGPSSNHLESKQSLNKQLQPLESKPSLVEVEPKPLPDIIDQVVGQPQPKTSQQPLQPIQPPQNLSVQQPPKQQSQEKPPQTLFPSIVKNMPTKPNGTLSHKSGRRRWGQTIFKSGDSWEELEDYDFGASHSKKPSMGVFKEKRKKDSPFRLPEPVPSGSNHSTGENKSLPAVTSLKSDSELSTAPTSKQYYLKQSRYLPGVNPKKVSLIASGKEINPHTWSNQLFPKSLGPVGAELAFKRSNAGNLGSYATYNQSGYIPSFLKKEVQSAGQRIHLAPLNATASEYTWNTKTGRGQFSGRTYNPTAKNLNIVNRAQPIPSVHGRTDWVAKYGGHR
In short: as §1

PKG1β(h) = target: T17, PKG1β(h) (Homo sapiens, UniProt Q13976); settings: read-out: Inhibition(%) @ 1 µM RK-019
T17 construct: purchased Eurofins Discovery Services (KinaseProfiler)
In short: as §1

FGFR2(N549H)(h) = target: T18, FGFR2(N549H)(h) (Homo sapiens, UniProt P21802, N549H); settings: read-out: Inhibition(%) @ 1 µM RK-019
T18 construct: purchased Eurofins Discovery Services (KinaseProfiler)
In short: as §1

IGF-1R(h) = target: T19, IGF-1R(h) (Homo sapiens, UniProt P08069); settings: read-out: Inhibition(%) @ 1 µM RK-019
T19 construct: purchased Eurofins Discovery Services (KinaseProfiler)
In short: as §1

AAK1(h) = target: T20, AAK1(h) (Homo sapiens, UniProt Q2M2I8); settings: read-out: Inhibition(%) @ 1 µM RK-019
T20 construct: purchased Eurofins Discovery Services (KinaseProfiler)
In short: as §1

IKKβ(h) = target: T21, IKKβ(h) (Homo sapiens, UniProt O14920); settings: read-out: Inhibition(%) @ 1 µM RK-019
T21 construct: purchased Eurofins Discovery Services (KinaseProfiler)
T21 sequence (O14920 whole entry): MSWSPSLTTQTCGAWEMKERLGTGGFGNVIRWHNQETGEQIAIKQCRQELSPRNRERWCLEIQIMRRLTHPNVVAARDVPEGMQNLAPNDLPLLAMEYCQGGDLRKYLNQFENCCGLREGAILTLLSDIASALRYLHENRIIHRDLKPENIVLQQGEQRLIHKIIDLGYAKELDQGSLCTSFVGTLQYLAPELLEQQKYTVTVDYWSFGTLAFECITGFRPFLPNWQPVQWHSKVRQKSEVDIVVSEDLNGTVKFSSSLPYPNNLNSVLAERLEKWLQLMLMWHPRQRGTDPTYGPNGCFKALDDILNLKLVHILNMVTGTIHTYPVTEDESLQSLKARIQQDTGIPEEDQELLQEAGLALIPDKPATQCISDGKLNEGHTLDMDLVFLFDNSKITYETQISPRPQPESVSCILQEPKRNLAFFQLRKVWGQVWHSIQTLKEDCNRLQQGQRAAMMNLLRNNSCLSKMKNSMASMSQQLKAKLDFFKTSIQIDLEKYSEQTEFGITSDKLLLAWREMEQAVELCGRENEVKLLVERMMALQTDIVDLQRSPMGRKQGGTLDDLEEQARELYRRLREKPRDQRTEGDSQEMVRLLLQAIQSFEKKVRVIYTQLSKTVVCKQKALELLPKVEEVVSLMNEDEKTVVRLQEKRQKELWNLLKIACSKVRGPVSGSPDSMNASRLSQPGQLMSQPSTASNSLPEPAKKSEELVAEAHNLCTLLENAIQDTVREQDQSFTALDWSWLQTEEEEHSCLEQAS
In short: as §1

EGFR(L861Q)(h) = target: T22, EGFR(L861Q)(h) (Homo sapiens, UniProt P00533, L861Q); settings: read-out: Inhibition(%) @ 1 µM RK-019
T22 construct: purchased Eurofins Discovery Services (KinaseProfiler)
In short: as §1

Src(T341M)(h) = target: T23, Src(T341M)(h) (Homo sapiens, UniProt P12931, T341M); settings: read-out: Inhibition(%) @ 1 µM RK-019
T23 construct: purchased Eurofins Discovery Services (KinaseProfiler)
In short: as §1

EGFR(h) = target: T24, EGFR(h) (Homo sapiens, UniProt P00533); settings: read-out: Inhibition(%) @ 1 µM RK-019
T24 construct: purchased Eurofins Discovery Services (KinaseProfiler)
In short: as §1

SRPK2(h) = target: T25, SRPK2(h) (Homo sapiens, UniProt P78362); settings: read-out: Inhibition(%) @ 1 µM RK-019
T25 construct: purchased Eurofins Discovery Services (KinaseProfiler)
In short: as §1

[1] = target: T26, PI3 Kinase (p110a(E545K)/p85a)(m) (Mus musculus, UniProt P42337, E545K); settings: read-out: Inhibition(%) @ 1 µM RK-019
T26 construct: purchased Eurofins Discovery Services (KinaseProfiler)

HIPK4(h) = target: T27, HIPK4(h) (Homo sapiens, UniProt Q8NE63); settings: read-out: Inhibition(%) @ 1 µM RK-019
T27 construct: purchased Eurofins Discovery Services (KinaseProfiler)
T27 sequence (Q8NE63 whole entry): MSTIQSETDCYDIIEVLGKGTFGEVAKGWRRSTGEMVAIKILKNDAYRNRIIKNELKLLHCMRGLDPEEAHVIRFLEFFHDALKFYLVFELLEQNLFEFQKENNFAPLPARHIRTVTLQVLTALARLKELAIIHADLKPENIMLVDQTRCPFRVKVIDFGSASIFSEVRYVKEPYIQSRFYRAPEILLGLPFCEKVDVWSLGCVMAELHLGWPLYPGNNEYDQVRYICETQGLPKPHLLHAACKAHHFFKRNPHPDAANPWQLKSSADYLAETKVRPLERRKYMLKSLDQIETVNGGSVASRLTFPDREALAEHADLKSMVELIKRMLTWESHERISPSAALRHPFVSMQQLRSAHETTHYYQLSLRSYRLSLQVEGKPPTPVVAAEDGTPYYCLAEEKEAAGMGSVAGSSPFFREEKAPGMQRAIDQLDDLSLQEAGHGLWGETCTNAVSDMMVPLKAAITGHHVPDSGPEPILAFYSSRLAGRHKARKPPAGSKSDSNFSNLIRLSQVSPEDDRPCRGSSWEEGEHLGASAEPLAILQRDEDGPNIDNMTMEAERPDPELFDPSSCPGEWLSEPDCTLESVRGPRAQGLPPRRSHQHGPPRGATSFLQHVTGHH
In short: as §1

DRAK2(h) = target: T28, DRAK2(h) (Homo sapiens, UniProt O94768); settings: read-out: Inhibition(%) @ 1 µM RK-019
T28 construct: purchased Eurofins Discovery Services (KinaseProfiler)
In short: as §1

ULK2(h) = target: T29, ULK2(h) (Homo sapiens, UniProt Q8IYT8); settings: read-out: Inhibition(%) @ 1 µM RK-019
T29 construct: purchased Eurofins Discovery Services (KinaseProfiler)
In short: as §1

PIP5K1a(h) = target: T30, PIP5K1a(h) (Homo sapiens, UniProt Q99755); settings: read-out: Inhibition(%) @ 1 µM RK-019
T30 construct: purchased Eurofins Discovery Services (KinaseProfiler)
In short: as §1

TYK2(h) = target: T31, TYK2(h) (Homo sapiens, UniProt P29597); settings: read-out: Inhibition(%) @ 1 µM RK-019
T31 construct: purchased Eurofins Discovery Services (KinaseProfiler)
In short: as §1

HIPK2(h) = target: T32, HIPK2(h) (Homo sapiens, UniProt Q9H2X6); settings: read-out: Inhibition(%) @ 1 µM RK-019
T32 construct: purchased Eurofins Discovery Services (KinaseProfiler)
In short: as §1

MEKK2(h) = target: T33, MEKK2(h) (Homo sapiens, UniProt Q9Y2U5); settings: read-out: Inhibition(%) @ 1 µM RK-019
T33 construct: purchased Eurofins Discovery Services (KinaseProfiler)
In short: as §1

DYRK2(h) = target: T34, DYRK2(h) (Homo sapiens, UniProt Q92630); settings: read-out: Inhibition(%) @ 1 µM RK-019
T34 construct: purchased Eurofins Discovery Services (KinaseProfiler)
In short: as §1

FGFR3(h) = target: T35, FGFR3(h) (Homo sapiens, UniProt P22607)
T35 construct: purchased Eurofins Discovery Services (KinaseProfiler)
T35 sequence (P22607 23-806): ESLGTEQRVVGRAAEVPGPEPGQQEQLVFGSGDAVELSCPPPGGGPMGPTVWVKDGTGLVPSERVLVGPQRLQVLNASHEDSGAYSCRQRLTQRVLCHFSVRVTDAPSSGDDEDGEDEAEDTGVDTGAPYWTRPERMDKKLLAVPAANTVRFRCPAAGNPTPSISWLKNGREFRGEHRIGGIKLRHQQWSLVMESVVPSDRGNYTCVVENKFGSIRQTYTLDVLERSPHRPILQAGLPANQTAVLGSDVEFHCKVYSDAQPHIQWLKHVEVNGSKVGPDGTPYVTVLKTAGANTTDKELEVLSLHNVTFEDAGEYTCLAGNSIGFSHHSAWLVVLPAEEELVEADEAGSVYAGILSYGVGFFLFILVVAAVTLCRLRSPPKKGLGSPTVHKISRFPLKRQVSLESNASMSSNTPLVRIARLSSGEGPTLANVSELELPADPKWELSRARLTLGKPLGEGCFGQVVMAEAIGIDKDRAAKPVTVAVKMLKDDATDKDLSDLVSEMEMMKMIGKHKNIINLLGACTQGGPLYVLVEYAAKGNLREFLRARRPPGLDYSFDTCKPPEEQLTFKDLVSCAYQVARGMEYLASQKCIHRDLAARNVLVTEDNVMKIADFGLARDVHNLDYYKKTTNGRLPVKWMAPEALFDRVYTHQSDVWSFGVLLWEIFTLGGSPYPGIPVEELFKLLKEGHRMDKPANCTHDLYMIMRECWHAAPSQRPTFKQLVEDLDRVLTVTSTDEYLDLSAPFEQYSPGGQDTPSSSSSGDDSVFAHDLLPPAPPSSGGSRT
In short: as §1

Fyn(h) = target: T36, Fyn(h) (Homo sapiens, UniProt P06241); settings: read-out: Inhibition(%) @ 1 µM RK-019
T36 construct: purchased Eurofins Discovery Services (KinaseProfiler)
In short: as §1

SMILES: COc1cc(OC)cc(N(CCN[C@H](C)CO)c2ccc3ncc(-c4cnn(C)c4)c(=O)n3c2)c1 [RK-019, (R)-7-((3,5-dimethoxyphenyl) (2-((1-hydroxypropan-2-yl)amino)ethyl)amino)-3-(1-methyl-1H-pyrazol-4-yl)-4H-pyrido [1,2-a]pyrimidin-4-one]
- activity at 1 µM (ALK4(h)): 91%
- activity at 1 µM (MYLK2(h)): 88%
- activity at 1 µM (ErbB2(h)): 94%
- activity at 1 µM (IKKα(h)): 100%
- activity at 1 µM (cKit(D816V)(h)): 93%
- activity at 1 µM (TLK1(h)): 98%
- activity at 1 µM (IKKε(h)): 107%
- activity at 1 µM (LRRK2(h)): 80%
- activity at 1 µM (DMPK(h)): 98%
- activity at 1 µM (p70S6K(h)): 119%
- activity at 1 µM (MLK2(h)): 103%
- activity at 1 µM (PIP4K2a(h)): 102%
- activity at 1 µM (PKBα(h)): 102%
- activity at 1 µM (Snk(h)): 109%
- activity at 1 µM (EphA4(h)): 101%
- activity at 1 µM (MAK(h)): 110%
- activity at 1 µM (PKG1β(h)): 103%
- activity at 1 µM (FGFR2(N549H)(h)): -1%
- activity at 1 µM (IGF-1R(h)): 104%
- activity at 1 µM (AAK1(h)): 91%
- activity at 1 µM (IKKβ(h)): 90%
- activity at 1 µM (EGFR(L861Q)(h)): 103%
- activity at 1 µM (Src(T341M)(h)): 98%
- activity at 1 µM (EGFR(h)): 119%
- activity at 1 µM (SRPK2(h)): 134%
- activity at 1 µM [1]: 102%
- activity at 1 µM (HIPK4(h)): 100%
- activity at 1 µM (DRAK2(h)): 96%
- activity at 1 µM (ULK2(h)): 107%
- activity at 1 µM (PIP5K1a(h)): 103%
- activity at 1 µM (TYK2(h)): 96%
- activity at 1 µM (HIPK2(h)): 83%
- activity at 1 µM (MEKK2(h)): 96%
- activity at 1 µM (DYRK2(h)): 94%
- activity at 1 µM (FGFR3(h); FGFR3(h), read-out: Inhibition(%) @ 1 µM RK-019): -3%
- inhibition at 1 µM (FGFR3(h); FGFR3, 1 µM, read-out: inhibition (hit in panel)): > 90%
- activity at 1 µM (Fyn(h)): 62%
